Data on 11 molecules can be found in paper PMC6017545, “Design, Synthesis, and Biological Evaluation of Novel 1,3,4-Thiadiazole Derivatives as Potential Antitumor Agents against Chronic Myelogenous Leukemia: Striking Effect of Nitrothiazole Moiety” (Molecules : A Journal of Synthetic Chemistry and Natural …, 2017).

Structures are written as SMILES. A value given as a limit tells only on which side of the number the result lay.

The subject of data set [1] is HeLa human cervical carcinoma cell line. Kind of data set: MTT cytotoxicity assay, HeLa cells. It counts as cell-based. The note with it: for activity against the HeLa cell line (in words): 48 h; for IC50: Homo sapiens, HeLa, 48 h of incubation, mean ± SD, three independent experiments. A general note: Formazan colour is commonly taken as a measure of viable cells.
Protocol: (§1) HeLa human cervical carcinoma cells were incubated in Dulbecco’s modified Eagle’s medium (DMEM) (Wako Pure Chemical Industries, Osaka, Japan) supplemented with 10% fetal bovine serum (FBS) (Equitech-Bio, Kerrville, TX, USA). […] Growing cells were plated at 2 × 10^4 cells/mL into 24-well microtiter tissue culture plates (Iwaki brand Asahi Glass Co., Chiba, Japan) and incubated for 48 h before the addition of the drugs (the optimal cell number for cytotoxicity assays was determined in preliminary experiments). […] The concentration of DMSO in the final culture medium was 1%.
(§2) The level of cellular reduction of 3-(4,5-dimethylthiazol-2-yl)-2,5-diphenyltetrazolium bromide (MTT) (Dojindo Molecular Technologies, Kumamoto, Japan) was quantified as previously described in the literature with small modifications [46]. The tested compounds were incubated with cells in various concentrations for 48 h. […] The solution was removed, and the formazan crystals were solubilized by an addition of 100 μL DMSO. The absorbance of the converted dye in the living cells was measured at a wavelength of 550 nm using a microplate spectrophotometer Infinitive M1000 (Tecan, Groding, Austria). Cell viability was calculated as a percentage of the viable control cells.
In data set [2] the test system is K562 chronic myelogenous leukemia cell line. Kind of data set: MTT cytotoxicity assay, K562 cells. It counts as cell-based, human. The following applies: for IC50: Homo sapiens, K562, 48 h of incubation, mean ± SD, three independent experiments.
Protocol: as §1, §2
The next data set concerns MT-2 cell line. Kind of data set: MTT cytotoxicity assay, MT-2 cells. The following applies: Homo sapiens, MT2, 48 h of incubation, mean ± SD, three independent experiments. Format: cell-based.
The test system of a further data set is Jurkat cell line. Kind of data set: MTT cytotoxicity assay, Jurkat cells. The note with it: Homo sapiens, 48 h of incubation, mean ± SD, three independent experiments. Format: cell-based.
In the next data set the target is LYN B (Homo sapiens, UniProt P07948). Kind of data set: Kinase inhibition assay (TK-2 profiling, ADP-Glo), LYN B. In general terms: ADP-Glo turns the ADP formed in a reaction into a luminescent signal.
LYN B, sequence (P07948 1-491 isoform P07948-2): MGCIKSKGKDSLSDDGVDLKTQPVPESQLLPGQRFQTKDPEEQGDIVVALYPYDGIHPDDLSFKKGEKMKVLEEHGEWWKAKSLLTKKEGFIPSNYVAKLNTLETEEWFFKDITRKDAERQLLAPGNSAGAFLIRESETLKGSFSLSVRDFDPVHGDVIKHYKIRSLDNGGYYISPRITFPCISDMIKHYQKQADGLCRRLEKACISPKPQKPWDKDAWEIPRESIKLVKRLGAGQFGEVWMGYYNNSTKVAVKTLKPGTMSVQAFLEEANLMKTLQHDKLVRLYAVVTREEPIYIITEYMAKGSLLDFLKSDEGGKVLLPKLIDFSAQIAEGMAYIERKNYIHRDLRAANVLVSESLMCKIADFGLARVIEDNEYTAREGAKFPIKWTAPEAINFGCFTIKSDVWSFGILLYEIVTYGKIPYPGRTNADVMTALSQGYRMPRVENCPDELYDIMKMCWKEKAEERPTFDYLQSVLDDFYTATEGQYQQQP
A further data set has as its target T1, LCK (Homo sapiens, UniProt P06239).
T1 construct: purchased Promega Corporation
Kind of data set: Kinase inhibition assay (TK-2 profiling, ADP-Glo), LCK. It counts as biochemical.

The next data set concerns the target T2, SRC (Homo sapiens, UniProt P12931).
T2 construct: purchased Promega Corporation
Kind of data set: Kinase inhibition assay (TK-2 profiling, ADP-Glo), SRC. It counts as biochemical.

A further data set has as its system HeLa cells. As to the kind of experiment: Apoptotic/necrotic/healthy cells detection assay (annexin V/ethidium homodimer III staining). It counts as cell-based, human. The following applies: IC50 concentration; for apoptotic activity: 3 h, approximately 100 stained cells counted; for apoptotic and necrotic effects: 24 h and 48 h, data not shown. Here is the method: Then, detection of apoptotic/necrotic/healthy cells was performed according to the manufacturer’s instructions (PromoKine, Heidelberg, Germany). After the cells were washed twice with 1× binding buffer, a staining solution containing 50 μL of 1 × binding buffer, 2 μL of FITC-Annexin V solution, 2 μL of ethidium homodimer III solution, and 2 μL of Hoechst 33,342 solution was added and the cells were incubated for 15 min at room temperature (RT), protected from light. The cells were washed with 1 × binding buffer, analyzed by the all-in-one fluorescence microscope Biorevo Fluorescence BZ-9000 (Keyence, Osaka, Japan), and counted as described previously in [47].

For data set [3], the system named is peripheral blood mononuclear cells (PBMC). As to the kind of experiment: MTT cytotoxicity assay, PBMC. Format: cell-based.
Protocol: as §1, §2
A further data set concerns the target CSK (Homo sapiens, UniProt P41240). Kind of data set: Kinase inhibition assay (TK-2 profiling, ADP-Glo), CSK.
Another data set deals with FYN A (Homo sapiens, UniProt P06241). As to the kind of experiment: Kinase inhibition assay (TK-2 profiling, ADP-Glo), FYN A.
FYN A, sequence (P06241 whole entry): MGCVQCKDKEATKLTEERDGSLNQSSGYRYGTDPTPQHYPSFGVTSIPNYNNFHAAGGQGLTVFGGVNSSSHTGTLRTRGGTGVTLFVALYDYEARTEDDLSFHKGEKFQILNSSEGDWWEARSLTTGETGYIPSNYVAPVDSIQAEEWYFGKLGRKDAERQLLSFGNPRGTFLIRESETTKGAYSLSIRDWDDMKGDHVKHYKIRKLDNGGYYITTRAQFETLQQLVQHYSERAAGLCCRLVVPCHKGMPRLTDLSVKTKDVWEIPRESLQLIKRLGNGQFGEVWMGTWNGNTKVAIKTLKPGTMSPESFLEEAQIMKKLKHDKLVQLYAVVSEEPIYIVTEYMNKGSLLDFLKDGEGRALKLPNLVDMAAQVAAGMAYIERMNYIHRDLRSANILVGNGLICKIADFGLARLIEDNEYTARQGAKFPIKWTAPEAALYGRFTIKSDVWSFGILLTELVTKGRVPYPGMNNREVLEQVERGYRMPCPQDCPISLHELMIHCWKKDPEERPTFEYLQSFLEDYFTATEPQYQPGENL
For a further data set, the target named is BTK (Homo sapiens, UniProt Q06187). Kind of data set: Kinase inhibition assay (TK-2 profiling, ADP-Glo), BTK.
BTK, sequence (Q06187 whole entry): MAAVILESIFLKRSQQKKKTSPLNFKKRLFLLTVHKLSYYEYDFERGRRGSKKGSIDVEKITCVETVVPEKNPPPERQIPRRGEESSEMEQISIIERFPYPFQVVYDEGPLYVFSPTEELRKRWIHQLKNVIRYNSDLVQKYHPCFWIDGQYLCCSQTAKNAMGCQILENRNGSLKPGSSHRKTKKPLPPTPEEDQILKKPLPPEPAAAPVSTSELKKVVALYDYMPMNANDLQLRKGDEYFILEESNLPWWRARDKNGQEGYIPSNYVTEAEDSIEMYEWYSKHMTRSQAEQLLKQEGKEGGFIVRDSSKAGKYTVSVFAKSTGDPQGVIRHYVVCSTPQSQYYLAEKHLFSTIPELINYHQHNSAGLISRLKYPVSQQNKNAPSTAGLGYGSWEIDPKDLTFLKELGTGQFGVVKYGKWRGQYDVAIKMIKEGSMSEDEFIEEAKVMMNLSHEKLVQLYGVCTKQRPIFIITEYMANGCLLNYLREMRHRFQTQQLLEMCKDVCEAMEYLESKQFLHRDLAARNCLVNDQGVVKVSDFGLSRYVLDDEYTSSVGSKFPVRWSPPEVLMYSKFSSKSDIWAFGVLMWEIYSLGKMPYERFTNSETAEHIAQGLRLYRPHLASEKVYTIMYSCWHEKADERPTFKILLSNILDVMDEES
Another data set has as its target T3, ABL1 (Homo sapiens, UniProt P00519).
T3 construct: purchased Promega Corporation
Kind of data set: Kinase inhibition assay (TK-2 profiling, ADP-Glo), ABL1. The note with it: 1 h at room temperature. Format: biochemical.

The next data set deals with BRK (Homo sapiens, UniProt Q13882). Kind of data set: Kinase inhibition assay (TK-2 profiling, ADP-Glo), BRK.
BRK, sequence (Q13882 whole entry): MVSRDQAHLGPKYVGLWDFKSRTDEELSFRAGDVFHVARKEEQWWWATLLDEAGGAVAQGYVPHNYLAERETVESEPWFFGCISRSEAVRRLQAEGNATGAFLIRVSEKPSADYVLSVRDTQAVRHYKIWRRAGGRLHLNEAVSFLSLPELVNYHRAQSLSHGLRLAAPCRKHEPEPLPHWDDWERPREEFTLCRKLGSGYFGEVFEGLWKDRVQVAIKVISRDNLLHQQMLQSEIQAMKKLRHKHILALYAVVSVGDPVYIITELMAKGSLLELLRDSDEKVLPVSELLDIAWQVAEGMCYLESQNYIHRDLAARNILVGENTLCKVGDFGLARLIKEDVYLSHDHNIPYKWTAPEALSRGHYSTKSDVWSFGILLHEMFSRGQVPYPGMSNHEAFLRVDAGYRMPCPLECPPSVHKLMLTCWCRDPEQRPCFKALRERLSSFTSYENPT
Where [4] appears, read: ADP-Glo, 1 h at room temperature.

T2 sequence (P12931 whole entry): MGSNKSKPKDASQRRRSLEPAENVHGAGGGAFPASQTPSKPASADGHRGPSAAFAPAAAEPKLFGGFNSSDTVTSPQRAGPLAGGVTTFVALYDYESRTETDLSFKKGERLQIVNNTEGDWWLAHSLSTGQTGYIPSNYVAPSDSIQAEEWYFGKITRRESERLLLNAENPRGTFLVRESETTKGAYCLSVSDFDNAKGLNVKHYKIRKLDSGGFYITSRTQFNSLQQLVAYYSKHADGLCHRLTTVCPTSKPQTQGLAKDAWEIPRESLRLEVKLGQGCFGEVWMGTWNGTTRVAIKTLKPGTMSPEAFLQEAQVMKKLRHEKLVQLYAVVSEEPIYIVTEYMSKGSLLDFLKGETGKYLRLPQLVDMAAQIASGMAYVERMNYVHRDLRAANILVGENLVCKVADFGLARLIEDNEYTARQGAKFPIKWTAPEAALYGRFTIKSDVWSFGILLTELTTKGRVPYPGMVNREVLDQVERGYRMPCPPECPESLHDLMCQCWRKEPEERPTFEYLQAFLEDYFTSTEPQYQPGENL
T1 sequence (P06239 whole entry): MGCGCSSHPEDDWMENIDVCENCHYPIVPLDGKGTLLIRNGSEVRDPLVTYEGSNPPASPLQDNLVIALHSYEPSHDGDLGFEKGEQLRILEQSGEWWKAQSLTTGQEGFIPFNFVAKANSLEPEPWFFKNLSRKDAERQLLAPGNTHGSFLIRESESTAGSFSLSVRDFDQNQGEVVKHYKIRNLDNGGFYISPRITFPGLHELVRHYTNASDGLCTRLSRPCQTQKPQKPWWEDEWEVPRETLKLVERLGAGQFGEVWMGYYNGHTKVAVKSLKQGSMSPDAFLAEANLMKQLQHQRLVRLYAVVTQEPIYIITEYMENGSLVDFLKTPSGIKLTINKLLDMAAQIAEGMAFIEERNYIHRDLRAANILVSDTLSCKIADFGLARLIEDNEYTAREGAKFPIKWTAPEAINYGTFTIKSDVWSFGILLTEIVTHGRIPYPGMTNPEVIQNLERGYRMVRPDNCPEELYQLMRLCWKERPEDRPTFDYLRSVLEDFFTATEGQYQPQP
CSK, sequence (P41240 whole entry): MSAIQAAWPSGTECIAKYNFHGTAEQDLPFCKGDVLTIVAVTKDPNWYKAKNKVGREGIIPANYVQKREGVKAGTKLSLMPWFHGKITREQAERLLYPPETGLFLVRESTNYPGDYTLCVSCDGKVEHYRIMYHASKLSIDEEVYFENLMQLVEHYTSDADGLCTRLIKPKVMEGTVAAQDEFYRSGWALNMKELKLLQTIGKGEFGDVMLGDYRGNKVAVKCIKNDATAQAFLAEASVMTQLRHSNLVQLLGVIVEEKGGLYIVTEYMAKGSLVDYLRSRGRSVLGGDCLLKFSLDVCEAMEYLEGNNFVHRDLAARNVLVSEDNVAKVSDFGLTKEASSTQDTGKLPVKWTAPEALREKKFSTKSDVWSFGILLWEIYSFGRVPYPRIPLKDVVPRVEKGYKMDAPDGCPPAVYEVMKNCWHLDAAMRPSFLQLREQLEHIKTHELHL
T3 sequence (P00519 whole entry): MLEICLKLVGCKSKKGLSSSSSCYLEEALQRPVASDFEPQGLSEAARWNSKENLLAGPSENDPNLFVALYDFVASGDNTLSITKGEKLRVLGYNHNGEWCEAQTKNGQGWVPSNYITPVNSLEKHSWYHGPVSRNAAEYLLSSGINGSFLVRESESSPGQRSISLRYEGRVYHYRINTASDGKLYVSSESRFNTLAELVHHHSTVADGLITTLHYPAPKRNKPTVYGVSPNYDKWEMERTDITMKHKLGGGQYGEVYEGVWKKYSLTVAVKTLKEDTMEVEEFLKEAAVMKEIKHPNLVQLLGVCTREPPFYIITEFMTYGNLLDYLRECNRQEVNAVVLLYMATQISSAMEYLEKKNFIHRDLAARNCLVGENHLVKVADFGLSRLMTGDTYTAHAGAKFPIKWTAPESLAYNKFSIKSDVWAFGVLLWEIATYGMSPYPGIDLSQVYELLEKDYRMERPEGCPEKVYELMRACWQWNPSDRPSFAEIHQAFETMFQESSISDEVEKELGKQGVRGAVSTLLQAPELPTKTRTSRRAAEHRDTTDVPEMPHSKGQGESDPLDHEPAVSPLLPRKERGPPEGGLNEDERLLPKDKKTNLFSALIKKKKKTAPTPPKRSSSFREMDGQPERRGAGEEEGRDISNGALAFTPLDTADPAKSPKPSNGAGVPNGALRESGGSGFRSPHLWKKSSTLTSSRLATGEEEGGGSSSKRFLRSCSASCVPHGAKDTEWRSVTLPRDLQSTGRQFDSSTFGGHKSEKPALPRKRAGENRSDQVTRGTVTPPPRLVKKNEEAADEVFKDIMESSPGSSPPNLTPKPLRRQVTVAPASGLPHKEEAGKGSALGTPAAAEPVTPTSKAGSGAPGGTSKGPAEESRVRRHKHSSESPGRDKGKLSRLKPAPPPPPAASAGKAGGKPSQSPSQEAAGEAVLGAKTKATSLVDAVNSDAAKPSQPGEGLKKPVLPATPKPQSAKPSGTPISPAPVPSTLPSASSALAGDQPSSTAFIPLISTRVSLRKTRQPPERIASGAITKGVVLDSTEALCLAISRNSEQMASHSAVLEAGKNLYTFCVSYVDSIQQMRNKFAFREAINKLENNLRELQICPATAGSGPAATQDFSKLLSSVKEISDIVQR
Protocol for ABL1: (§3) Kinase selectivity profiling system (TK-2) assays were performed according to the manufacturer’s instructions (Promega Corporation, Madison, WI, USA). Multipoint dose-response experiments were performed using eight kinases, namely: ABL1, BRK, BTK, CSK, FYN A, LCK, LYN B, and SRC. […] After 1 h of incubation at room temperature, kinase activity was quantified using the ADP-Glo Kinase Assay (Promega Corporation). Kinase inhibition was quantified using an Infinitive M1000 luminescence microplate spectrophotometer (Tecan, Groding, Austria).
Protocol for BRK: as §3
Protocol for BTK: as §3
Protocol for CSK: as §3
Protocol for FYN A: as §3
Protocol for Jurkat cell line: as §1, §2
Protocol for LCK: as §3
Protocol for LYN B: as §3
Protocol for MT-2 cell line: as §1, §2
Protocol for SRC: as §3

By IC50 is commonly meant the midpoint of a concentration-inhibition curve. A high value points to lower potency. Broadly, the melting point is the temperature of the solid-liquid transition. Regarding `O=C(CSc1nnc(Nc2ccc(C(F)(F)F)cc2)s1)Nc1nccs1` [Compound 1, N-(Thiazol-2-yl)-2-((5-((4-(trifluoromethyl)phenyl)amino)-1,3,4-thiadiazol-2-yl)thio)acetamide], the melting point lay within 271.4 to 272.5 °C. For the same molecule, in [1], the “activity against the HeLa cell line (in words)” value was “no significant activity” and 135 ± 12 µM corresponded to half-maximal inhibition (IC50). Moreover, the “activity against the K562 cell line (in words)” value in data set [2] (48 h) is “inactive”. In addition, the IC50 in data set [2] is greater than 300 µM. The IC50 with MT-2 cell line was greater than 300 µM. In addition, in the data set with Jurkat cell line, the half-inhibitory concentration (IC50) is greater than 300 µM.

As for `O=C(CSc1nnc(Nc2ccc(C(F)(F)F)cc2)s1)Nc1ncc([N+](=O)[O-])s1` [Compound 2, N-(5-Nitrothiazol-2-yl)-2-((5-((4-(trifluoromethyl)phenyl)amino)-1,3,4-thiadiazol-2-yl)thio)acetamide], the melting point fell in the range of 275 to 276.5 °C. Besides, on LYN B, the IC50 is greater than 100 µM and the “inhibition of LYN B (in words)” value is “inactive”. Also, the IC50 against LCK (setting [4]) is 40.1 µM. Besides, the “inhibition of LCK (in words)” value on LCK (IC50 in the micromolar range) is on record as “significantly inhibited”. On SRC, the “inhibition of SRC (in words)” value was “inactive”. The molecule also had a half-inhibitory concentration (IC50) at SRC (setting [4]) greater than 100 µM. In the data set with HeLa cells, the apoptotic activity was 96%; the “apoptotic and necrotic effects” value is on record as “induced late apoptosis or necrosis”. Also, the IC50 in data set [3] (PBMC, MTT, 48 h of incubation, mean ± SD, three independent experiments) came to 141 ± 16 µM. In addition, the “times lower cytotoxicity on PBMC than imatinib” value in data set [3] (ratio of PBMC IC50 values, 48 h) is ~ 5 times. In data set [1], this molecule came in with a concentration for half-maximal inhibition (IC50) of 12.4 ± 2 µM. This molecule also registered a concentration for half-maximal inhibition (IC50) on CSK of 18.4 µM. In addition, the “inhibition of CSK (in words)” value on CSK (IC50 in the micromolar range) was “significantly inhibited”. Moreover, the IC50 on FYN A came out at 70.8 µM. The “inhibition of FYN A (in words)” value on FYN A (IC50 in the micromolar range) was “significantly inhibited”. Also, the half-maximal inhibitory concentration (IC50) on BTK amounted to 30.2 µM. Also, at BTK (IC50 in the micromolar range), the “inhibition of BTK (in words)” value was “significantly inhibited”. Inhibition against ABL1 was half-maximal at 7.4 µM (IC50). Further, the midpoint of inhibition in data set [2], the IC50, lay at 33 ± 4 µM. In addition, the IC50 with MT-2 cell line was 167 ± 8 µM. Also, on BRK, the half-maximal inhibitory concentration (IC50) was greater than 100 µM and the “inhibition of BRK (in words)” value was “inactive”. Moreover, inhibition in the data set on Jurkat cell line was half-maximal at 17.9 ± 4 µM (IC50).

With `CCOC(=O)Cc1csc(NC(=O)CSc2nnc(Nc3ccc(C(F)(F)F)cc3)s2)n1` [Compound 3, Ethyl 2-(2-(2-((5-((4-(trifluoromethyl)phenyl)amino)-1,3,4-thiadiazol-2-yl)thio)acetamido)thiazol-4-yl)acetate], the half-inhibitory concentration (IC50) in data set [1] is 14.1 ± 5 µM; in data set [2], greater than 300 µM; with MT-2 cell line, greater than 300 µM; with Jurkat cell line, 129 ± 6 µM.

For the molecule `O=C(CSc1nnc(Nc2ccc(C(F)(F)F)cc2)s1)Nc1nc2ccccc2s1` [Compound 4, N-(Benzothiazol-2-yl)-2-((5-((4-(trifluoromethyl)phenyl)amino)-1,3,4-thiadiazol-2-yl)thio)acetamide], the IC50 in data set [1] is 32.9 ± 2 µM; in [2] it was greater than 300 µM; in the data set on MT-2 cell line, 267 ± 14 µM; with Jurkat cell line it was greater than 300 µM.

`O=C(CSc1nnc(Nc2ccc(C(F)(F)F)cc2)s1)Nc1nc2ccc(F)cc2s1` [Compound 5, N-(6-Fluorobenzothiazol-2-yl)-2-((5-((4-(trifluoromethyl)phenyl)amino)-1,3,4-thiadiazol-2-yl)thio)acetamide] showed a melting point of 309.9 to 310.8 °C. For the same molecule, half-maximal inhibition in data set [1] (IC50) was put at 17.3 ± 8 µM. This molecule had a half-maximal inhibitory concentration (IC50) in [2] greater than 300 µM. The molecule further had an IC50 with MT-2 cell line of 78.5 ± 12 µM. In the data set with Jurkat cell line, this molecule gave an IC50 of 97.9 ± 10 µM.

On to `O=C(CSc1nnc(Nc2ccc(C(F)(F)F)cc2)s1)Nc1nc2ccc(Cl)cc2s1` [Compound 6, N-(6-Chlorobenzothiazol-2-yl)-2-((5-((4-(trifluoromethyl)phenyl)amino)-1,3,4-thiadiazol-2-yl)thio)acetamide], for which the IC50 is 28.7 ± 10 µM in [1], greater than 300 µM in data set [2], 38.3 ± 2 µM with MT-2 cell line and 54.4 ± 8 µM in the data set on Jurkat cell line.

On to `Cc1ccc2nc(NC(=O)CSc3nnc(Nc4ccc(C(F)(F)F)cc4)s3)sc2c1` [Compound 7, N-(6-Methylbenzothiazol-2-yl)-2-((5-((4-(trifluoromethyl)phenyl)amino)-1,3,4-thiadiazol-2-yl)thio)acetamide], for which the 50% inhibitory concentration (IC50) in data set [1] is 30.2 ± 4 µM; in data set [2], greater than 300 µM; with MT-2 cell line, 198 ± 11 µM; in the data set on Jurkat cell line it was greater than 300 µM.

On to `COc1ccc2nc(NC(=O)CSc3nnc(Nc4ccc(C(F)(F)F)cc4)s3)sc2c1` [Compound 8, N-(6-Methoxybenzothiazol-2-yl)-2-((5-((4-(trifluoromethyl)phenyl)amino)-1,3,4-thiadiazol-2-yl)thio)acetamide], for which the concentration for half-maximal inhibition (IC50) is 30.9 ± 4 µM in data set [1], greater than 300 µM in data set [2], greater than 300 µM with MT-2 cell line and greater than 300 µM in the data set with Jurkat cell line.

For the molecule `CCOc1ccc2nc(NC(=O)CSc3nnc(Nc4ccc(C(F)(F)F)cc4)s3)sc2c1` [Compound 9, N-(6-Ethoxybenzothiazol-2-yl)-2-((5-((4-(trifluoromethyl)phenyl)amino)-1,3,4-thiadiazol-2-yl)thio)acetamide], in data set [1], the “activity against the HeLa cell line (in words)” value is given as “no significant activity”. Besides, the IC50 in data set [1] was 69.4 ± 7 µM; in data set [2] it was greater than 300 µM; in the data set with MT-2 cell line, greater than 300 µM; in the data set on Jurkat cell line it was 96.1 ± 7 µM.

`O=C(CSc1nnc(Nc2ccc(C(F)(F)F)cc2)s1)Nc1nc2ccc([N+](=O)[O-])cc2s1` [Compound 10, N-(6-Nitrobenzothiazol-2-yl)-2-((5-((4-(trifluoromethyl)phenyl)amino)-1,3,4-thiadiazol-2-yl)thio)acetamide]: the melting point lay in the range of 311.8 to 312.5 °C. Besides, in data set [1], the “activity against the HeLa cell line (in words)” value is “no significant activity” and the IC50 turned out to be 75.3 ± 9 µM. The half-inhibitory concentration (IC50) in data set [2] was greater than 300 µM. Also, the half-maximal inhibitory concentration (IC50) with MT-2 cell line was greater than 300 µM. Moreover, the half-inhibitory concentration (IC50) in the data set with Jurkat cell line was greater than 300 µM.

For `Cc1ccc(NC(=O)c2ccc(CN3CCN(C)CC3)cc2)cc1Nc1nccc(-c2cccnc2)n1` [Imatinib, imatinib, reference compound], in the data set on HeLa cells, the apoptotic activity is listed as 78%; the “apoptotic and necrotic effects” value is “induced late apoptosis or necrosis”.
